Values after ≈ are worked out from the molar mass of the structure shown.
Tests used:
[1] = system: Histoplasma capsulatum Stamm Hist 2; assay: microbe, parasite or virus in culture; type: cell-based; conditions: 288 h, read-out: MHC (µg/ml) Histoplasma capsulatum
Puccinia coronata = Puccinia coronata protective spray test on oat seedlings; type: in vivo; conditions: oat seedlings FLAEMINGSKRONE, infected 2 days after spraying, read on day 9 after infection vs infected untreated control
Procedure: 30-40 Haferkeimlinge der Sorte FLAEMINGSKRONE (verteilt auf 2 Töpfe mit 7 cm Durchmesser) wurden jeweils im Einblattstadium mit einer wässerigen Dispersion der Testsubstanz (wie allgemein üblich aufbereitet als Spritzpulver) allseitig gründlich besprüht und anschliessend in einer Klimakabine bei 17°C. 70-80% rel. Luftfeuchtigkeit und einer Photoperiode von 16 Stunden weiterkultiviert. Nach 2 Tagen erfolgte die Infektion der Versuchspflanzen durch Besprühen mit in dest. Wasser suspendierten Uredosporen (300'000 Sporen/ml) vor. Puccinia coronata. Danach wurden die Pflanzen während 24 Stunden bei 20°C und einer Luftfeuchtigkeit von über 90W im Dunkeln inkubiert und anschliessend in ein Gewächshaus mit einer Temperatur von 22-26 °C, einer rel. Luftfeuchtigkeit von 70% und einer Photoperiode von 18 Stunden übe führt. Am 9. Tage nach der Infektion wurde die durch Pucrinia coronata befallene Blattfläche in % gegenüber der infizierten, nicht behandelten Kontrolle ermittelt. Die ResLltate sind in Tabelle I zusammengefasst.

[2] = system: Candida albicans Stamm H 29; assay: Candida albicans in vitro agar dilution test; type: cell-based; conditions: STAMMH29, 168 h, minimal concentration fully preventing growth, tested at 100, 10, 1 mcg/ml, 7 days at 37°C, values mostly maximum values, true MHC may be lower
Procedure: Methode: Eine standardisierte Suspension der Hefeform von Candida albicans Stamm H 29 (ca. 300 Zellen/5 ml, das fünfzigfache der zum Angehen der Kultur notwendigen geringsten Keimzahl) wird gleichzeitig mit geeigneten Präparatlösungen in verflüssigten und auf 50°C abgekühlten Agarnährboden nach Rowley und Huber eingegossen. Lösung der Präparate in Wasser oder Polyäthylenglykol (Carbowax 400). Präparate, die weder in Wasser noch in Polyäthylenglykol löslich sind, werden fein suspendiert. Endkonzentrationen der Präparate im Nährboden 100, 10 und 1 mcg/ml. Endkonzentration von Polyäthylenglykol 5%. 7 Tage Bebrütung bei 37°C.
(§1) Auswertung: Ablesung des Pilzwachstums mit blossem Auge.
(§2) Resultate: Angabe der minimalen Präparatkonzentration in mcg/ml, die das Wachstum des Pilzes vollständig verhindert (MHC). Die Resultate sind für einige Beispiele in der nachstehenden Tabelle II zusammengefasst.

[3] = system: Trichophyten mentagrophytes Stamm 109; assay: Trichophyton mentagrophytes in vitro agar dilution test; type: cell-based; conditions: STAMM109, 168 h, minimal concentration fully preventing growth, tested at 100, 10, 1, 0,1, 0,01 mcg/ml, 7 days at 37°C, values mostly maximum values, true MHC may be lower, read-out: MHC (µg/ml) Trichophyton mentagr.
Procedure: Methode: Eine standardisierte Suspension der Hefeform von Konidien (Sporen) von Trichophyten mentagrophytes Stamm 109 (ca. das Fünfzigfache der zum Angehen der Kultur notwendigen geringsten Keimzahl) wird gleichzeitig mit geeigneten Präparatlösungen in verflüssigten und auf 50°C abgekühlten Agarnährboden nach Rowley und Huber eingegossen. Lösung der Präparate in Wasser oder Polyäthylenglykol (Carbowax 400). Präparate, die weder in Wasser noch in Polyäthylenglykol löslich sind, werden fein suspendiert. End- . konzentrationen der Präparate im Nährboden 100, 10, 1, 0,1 und 0,01 mcg/ml. Endkonzentration von Polyäthylenglykol 5%. 7 Tage Bebrütung bei 37°C.
as §1, §2

Erysiphe graminis = Erysiphe graminis protective spray test on barley seedlings (greenhouse); type: in vivo; conditions: barley seedlings HERTA, infected 2 days after spraying, read 7 days after infection vs infected untreated control
Procedure: 30-40 Gerstenkeimlinge der Sorte HERTA (verteilt auf 2 Töpfe mit 7 cm Durchmesser) wurden jeweils im Einblattstadium mit einer wässerigen Dispersion der Testsubstanz (wie allgemein üblich aufbereitet als Spritzpulver) allseitig gründlich besprüht und anschliessend bei 22-26°C, 80% rel. Luftfeuchtigkeit und einer Photoperiode von 16 Stunden im Gewächshaus weiterkultiviert. Die Infektion erfolgte 2 Tage nach der Behandlung durch Bestäuben der Versuchspflanzen mit Kon dien von Erysiphe graminis. 7 Tage nach der Infektion wurde ::ie durch Erysiphe graminis befallene Blattfläche in % gegenüber derjenigen der infizierten, nicht behandelten Kontrolle ermittelt. Die Resultate sind in Tabelle I zusammengefasst.

Venturia inaequalis = Venturia inaequalis protective spray test on apple seedlings; type: in vivo; conditions: infected 2 days after spraying, read on day 13 after infection vs infected untreated control
Procedure: 3 Apfelpflänzchen (verteilt auf 3 Töpfe mit 5 cm Durchmesser) aus Samen der Sorte GOLDIN DELICIOUS wurden im 4- bis 5-Blattstadium mit einer wässerigen Dispersion der Testsubstanz (wie allgemein üblich aufbereitet als Spritzpulver) allseitig gründlich besprüht. Die behandelten Pflanzen wurden anschliessend während 2 Tagen bei 17°C, 70-80%rel. Luftfeuchtigkeit und einer Photoperiode von 14 Stunden weiterkultiviert. Danach erfolgte die Infektion der Apfelsämlinge durch Besprühen mit in dest. Wasser suspendierten Konidien (200'000 Konidien/ml) von Venturia inaequalis. Nach der Infektion wurden die Pflanzen im Dunkeln während 48 Stunden bei 16-18°C und einer rel. Luftfeuchtigkeit von über 90% inkubiert und anschliessend in ein schattiertes Gewächshaus mit einer Temperatur von 22-26 °C und einer rel. Luftfeuchtigkeit von über 80% überführt. Am 13. Tage nach der Infektion erfolgte die Ermittlung der durch Venturia inaequalis befallenen Blattfläche gegenüber der infizierten, nicht behandelten Kontrolle. Die Resultate sind in Tabelle II zusammengefasst.

`CCC(C)(C)c1ccc(C(C)=C(C)CN2CCC(=O)CC2)cc1` [1-[3-(p-tert.-Amyl-phenyl)-2,3-dimethyl-2-propenyl]-4-piperidon] was tested, and the MIC [1] was 10 µg/mL (≈ 31.9 µM), the “Wirkung (in %) Puccinia coronata” value (Puccinia coronata; 5 mg/l Spritzbrühe) was 90% and the “Wirkung (in %) Puccinia coronata” value (Puccinia coronata; 16 mg/l Spritzbrühe) was 95%. The “Wirkung (in %) Puccinia coronata” value (Puccinia coronata; 50 mg/l Spritzbrühe) was 100%, the “Wirkung (in %) Puccinia coronata” value (Puccinia coronata; 160 mg/l Spritzbrühe) was 100% and the “Wirkung (in %) Puccinia coronata” value (Puccinia coronata; 500 mg/l Spritzbrühe) was 100%. For the same compound, the MIC [2] was 10 mg/L (≈ 31.9 µM), the MIC [3] was 10 µg/mL (≈ 31.9 µM) and the “Wirkung (in %) Erysiphe graminis” value (Erysiphe graminis; 5 mg/l Spritzbrühe) was 60%. The “Wirkung (in %) Erysiphe graminis” value (Erysiphe graminis; 16 mg/l Spritzbrühe) was 85%, the “Wirkung (in %) Erysiphe graminis” value (Erysiphe graminis; 50 mg/l Spritzbrühe) was 90% and the “Wirkung (in %) Erysiphe graminis” value (Erysiphe graminis; 160 mg/l Spritzbrühe) was 98%. For the same compound, the “Wirkung (in %) Venturia inaequalis” value (Venturia inaequalis; 5 mg/l Spritzbrühe) was 0%, the “Wirkung (in %) Venturia inaequalis” value (Venturia inaequalis; 16 mg/l Spritzbrühe) was 37% and the “Wirkung (in %) Venturia inaequalis” value (Venturia inaequalis; 50 mg/l Spritzbrühe) was 83%. The “Wirkung (in %) Venturia inaequalis” value (Venturia inaequalis; 160 mg/l Spritzbrühe) was 98%.

With `CCC(C)(C)c1ccc(CC(C)CN2CCC(=O)CC2)cc1` (stereo not drawn) [1-[3-(p-tert.-Amyl-phenyl)-2-methyl-propyl]-4-piperidon] the MIC [1] was 10 µg/mL (≈ 33.2 µM), the “Wirkung (in %) Puccinia coronata” value (Puccinia coronata; 5 mg/l Spritzbrühe) was 0% and the “Wirkung (in %) Puccinia coronata” value (Puccinia coronata; 16 mg/l Spritzbrühe) was 10%. The “Wirkung (in %) Puccinia coronata” value (Puccinia coronata; 50 mg/l Spritzbrühe) was 90%, the “Wirkung (in %) Puccinia coronata” value (Puccinia coronata; 160 mg/l Spritzbrühe) was 98% and the “Wirkung (in %) Puccinia coronata” value (Puccinia coronata; 500 mg/l Spritzbrühe) was 100%. For the same compound, the MIC [2] was 10 mg/L (≈ 33.2 µM), the MIC [3] was 10 µg/mL (≈ 33.2 µM) and the “Wirkung (in %) Erysiphe graminis” value (Erysiphe graminis; 5 mg/l Spritzbrühe) was 20%. The “Wirkung (in %) Erysiphe graminis” value (Erysiphe graminis; 16 mg/l Spritzbrühe) was 80%, the “Wirkung (in %) Erysiphe graminis” value (Erysiphe graminis; 50 mg/l Spritzbrühe) was 95% and the “Wirkung (in %) Erysiphe graminis” value (Erysiphe graminis; 160 mg/l Spritzbrühe) was 100%. For the same compound, the “Wirkung (in %) Erysiphe graminis” value (Erysiphe graminis; 500 mg/l Spritzbrühe) was 100% and the “Wirkung (in %) Venturia inaequalis” value (Venturia inaequalis; 500 mg/l Spritzbrühe) was 20%.
